The values that follow come from patent US7511144B2, “Reverse hydroxamic acid derivatives” (Kaken Pharmaceutical Co., Ltd., priority 2001, dated 2009).

Common to all, as to assay type: biochemical
One test has as its target T1, Human MMP14 (Homo sapiens, UniProt P50281).
T1 construct: purchased Biogenesis or Calbiochem 5980-1461 or 475935
Briefly: MMP14 inhibition experiment. The note with it: concentration required for 50% inhibition of enzyme activity; read-out: IC50 value MMP-14. The method, boiled down:
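Fluorescence assay: substrate Dnp-Pro-Cha-Gly-Cys(Me)-His-Ala-Lys(Nma)-NH2 (20 μM before equal-volume mixing) incubated at 37° C for 5 hours with 4 ng human MMP14.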

A further test deals with T2, Human MMP2 (Homo sapiens, UniProt P08253).
T2 construct: purchased Calbiochem 444213
T2 sequence (P08253 110-660): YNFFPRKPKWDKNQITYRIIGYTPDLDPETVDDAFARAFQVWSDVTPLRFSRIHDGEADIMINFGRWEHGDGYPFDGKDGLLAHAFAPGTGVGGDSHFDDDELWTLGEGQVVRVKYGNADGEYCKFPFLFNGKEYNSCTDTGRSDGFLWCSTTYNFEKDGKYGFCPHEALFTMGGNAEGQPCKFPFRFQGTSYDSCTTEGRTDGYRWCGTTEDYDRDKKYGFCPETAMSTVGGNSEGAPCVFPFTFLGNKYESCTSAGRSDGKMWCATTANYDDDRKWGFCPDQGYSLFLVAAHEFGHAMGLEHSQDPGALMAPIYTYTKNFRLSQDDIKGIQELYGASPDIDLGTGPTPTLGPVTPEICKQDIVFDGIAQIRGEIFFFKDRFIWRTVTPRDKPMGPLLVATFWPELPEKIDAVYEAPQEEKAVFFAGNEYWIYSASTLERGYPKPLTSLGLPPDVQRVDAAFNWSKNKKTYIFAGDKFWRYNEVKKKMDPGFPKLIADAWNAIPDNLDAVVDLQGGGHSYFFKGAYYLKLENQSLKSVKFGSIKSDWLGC
Briefly: MMP2 inhibition experiment. The note with it: concentration required for 50% inhibition of enzyme activity; read-out: IC50 value MMP-2.

For a further test, the target named is T3, Human MMP9 (Homo sapiens, UniProt P14780).
T3 construct: purchased Calbiochem 444231
Description: MMP9 inhibition experiment. The note with it: read-out: IC50 value MMP-9.

In a further test the target is T4, Human MMP1 (Homo sapiens, UniProt P03956).
T4 construct: purchased Calbiochem 444208
T4 sequence (P03956 100-469): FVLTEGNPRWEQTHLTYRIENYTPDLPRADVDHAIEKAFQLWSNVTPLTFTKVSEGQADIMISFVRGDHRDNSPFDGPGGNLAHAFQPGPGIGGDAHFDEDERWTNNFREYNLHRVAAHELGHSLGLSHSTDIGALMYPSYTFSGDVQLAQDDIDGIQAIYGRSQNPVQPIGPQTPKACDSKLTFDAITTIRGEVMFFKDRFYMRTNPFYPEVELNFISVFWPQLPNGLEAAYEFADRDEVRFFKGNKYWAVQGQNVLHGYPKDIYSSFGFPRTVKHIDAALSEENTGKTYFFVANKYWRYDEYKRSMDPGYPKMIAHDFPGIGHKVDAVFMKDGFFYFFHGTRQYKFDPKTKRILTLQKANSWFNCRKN
Description: MMP1 inhibition experiment. The note with it: read-out: IC50 value MMP-1.

Another test addresses T5, Human MMP8 (Homo sapiens, UniProt P22894).
T5 construct: purchased Calbiochem 444229
Description: MMP8 inhibition experiment. Particulars: concentration required for 50% inhibition of enzyme activity; read-out: IC50 value MMP-8. The method, boiled down:
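Human MMP8 activated with APMA for 1 h at 37° C, then incubated with fluorogenic peptide MOCAc-Pro-Leu-Gly-Leu-A2pr(Dnp)-Ala-Arg-NH2 (20 μM stock) for 5 hours at 37° C. Fluorescent substrate cleavage serves as read-out.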

A further test deals with T6, Human MMP3 (Homo sapiens, UniProt P08254).
T6 construct: purchased Calbiochem 444217
Briefly: MMP3 inhibition experiment. The note with it: concentration required for 50% inhibition of enzyme activity; read-out: IC50 value MMP-3. The essentials: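 Fluorescence-quenched substrate NFF-3 (MOCAc/Dnp peptide, 20 μM as prepared) cleaved by 5 ng human MMP3 over 5 hours at 37° C, with inhibition measured from substrate fluorescence.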

The target in another test is T7, TACE (Homo sapiens, UniProt P78536).
T7 construct: made in house; host or cells: mammalian cells or insect cells
Briefly: TACE inhibition experiment (in vitro).

The next test has as its target T8, Human MMP17 (Homo sapiens, UniProt Q9ULZ9).
T8 construct: purchased Calbiochem 475940
T8 sequence (Q9ULZ9 126-300 limits assumed): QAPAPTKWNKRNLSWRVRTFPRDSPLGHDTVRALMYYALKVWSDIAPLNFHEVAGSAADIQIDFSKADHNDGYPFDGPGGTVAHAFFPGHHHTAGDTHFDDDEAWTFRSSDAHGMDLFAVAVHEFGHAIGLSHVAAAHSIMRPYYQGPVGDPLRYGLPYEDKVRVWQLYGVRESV
Description: MMP17 inhibition test. The note with it: concentration required for 50% inhibition of enzyme activity; read-out: IC50 value MMP-17.

For another test, the target named is T9, Human MMP13 (Homo sapiens, UniProt P45452).
T9 construct: purchased Chemicon CC068
Description: MMP13 inhibition experiment. The note with it: concentration required for 50% inhibition of enzyme activity; read-out: IC50 value MMP-13.

Molecules are shown by their SMILES.

T6 sequence (P08254 100-272 limits assumed): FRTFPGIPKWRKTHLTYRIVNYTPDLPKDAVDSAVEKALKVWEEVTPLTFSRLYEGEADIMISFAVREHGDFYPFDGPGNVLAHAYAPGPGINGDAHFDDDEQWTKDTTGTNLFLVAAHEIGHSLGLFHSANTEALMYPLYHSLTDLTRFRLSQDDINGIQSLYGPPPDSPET
T5 sequence (P22894 101-467): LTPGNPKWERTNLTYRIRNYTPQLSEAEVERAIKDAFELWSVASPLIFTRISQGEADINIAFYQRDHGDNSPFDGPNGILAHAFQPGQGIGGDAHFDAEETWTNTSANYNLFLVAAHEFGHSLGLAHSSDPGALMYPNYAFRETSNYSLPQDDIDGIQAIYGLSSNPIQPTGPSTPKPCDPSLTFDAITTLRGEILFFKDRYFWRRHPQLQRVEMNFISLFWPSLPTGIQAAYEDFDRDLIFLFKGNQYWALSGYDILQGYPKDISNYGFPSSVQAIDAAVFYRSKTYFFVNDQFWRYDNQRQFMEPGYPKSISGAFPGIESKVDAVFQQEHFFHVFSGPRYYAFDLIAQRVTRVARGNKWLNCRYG
T7 sequence (P78536 215-824): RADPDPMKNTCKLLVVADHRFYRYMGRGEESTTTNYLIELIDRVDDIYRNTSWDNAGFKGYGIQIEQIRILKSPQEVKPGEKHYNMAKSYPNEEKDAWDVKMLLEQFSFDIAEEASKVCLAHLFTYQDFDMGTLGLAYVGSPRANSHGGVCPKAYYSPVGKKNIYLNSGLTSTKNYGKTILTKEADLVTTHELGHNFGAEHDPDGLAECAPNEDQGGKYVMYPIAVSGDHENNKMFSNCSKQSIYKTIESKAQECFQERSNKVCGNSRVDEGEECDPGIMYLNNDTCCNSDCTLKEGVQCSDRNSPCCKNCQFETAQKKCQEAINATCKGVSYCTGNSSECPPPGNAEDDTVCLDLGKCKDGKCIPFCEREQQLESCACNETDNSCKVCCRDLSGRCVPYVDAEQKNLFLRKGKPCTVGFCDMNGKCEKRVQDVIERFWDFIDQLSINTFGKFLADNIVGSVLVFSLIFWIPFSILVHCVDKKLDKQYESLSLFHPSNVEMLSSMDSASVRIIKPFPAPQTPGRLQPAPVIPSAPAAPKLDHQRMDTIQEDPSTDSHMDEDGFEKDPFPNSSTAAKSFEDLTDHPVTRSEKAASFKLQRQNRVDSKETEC
T3 sequence (P14780 107-707 limits assumed): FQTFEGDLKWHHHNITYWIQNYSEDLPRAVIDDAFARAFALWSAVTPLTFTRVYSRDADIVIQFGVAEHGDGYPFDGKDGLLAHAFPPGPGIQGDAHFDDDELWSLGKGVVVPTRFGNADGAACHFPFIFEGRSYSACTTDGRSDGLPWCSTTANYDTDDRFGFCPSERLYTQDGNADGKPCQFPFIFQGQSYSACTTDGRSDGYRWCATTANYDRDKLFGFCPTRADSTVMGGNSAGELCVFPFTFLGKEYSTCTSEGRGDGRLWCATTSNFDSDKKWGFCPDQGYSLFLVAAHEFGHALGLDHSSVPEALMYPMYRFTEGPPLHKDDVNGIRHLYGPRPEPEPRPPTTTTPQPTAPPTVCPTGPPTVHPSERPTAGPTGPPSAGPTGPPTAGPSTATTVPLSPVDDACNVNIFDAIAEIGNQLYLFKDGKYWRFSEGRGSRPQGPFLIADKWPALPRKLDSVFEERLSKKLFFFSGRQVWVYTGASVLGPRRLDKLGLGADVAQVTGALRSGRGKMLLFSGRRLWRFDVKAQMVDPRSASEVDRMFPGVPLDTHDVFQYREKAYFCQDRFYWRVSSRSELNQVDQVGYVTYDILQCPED
Description for Human MMP13: Human MMP13 (Chemicon #CC068) in amount of 90 μL (200 ng) was activated by mixing with 10 μL of 10 mM APMA, followed by reaction for 1 hour at 37° C. This enzyme solution in amount of 0.6 μL was diluted to 90 μL with the assay buffer A, which was added to 90 μL of 20 μM fluorescent substrate (Dnp-Pro-Cha-Gly-Cys(Me)-His-Ala-Lys(Nma)-NH2) prepared in the assay buffer B, followed by reaction for 4 hours at 37° C.
Description for Human MMP2: This enzyme solution in amount of 10 μL was diluted to 90 μL with the assay buffer A, which was added to 90 μL of 20 μM fluorescent substrate (MOCAc((7-methoxycoumarin-4-yl)acetyl)-Pro-Leu-Gly-Leu-A2pr(Dnp)-Ala-Arg-NH2, Peptide Institute, Inc., #3163-v) prepared in the assay buffer B, followed by reaction for 5 hours at 37° C.
Description for Human MMP9: The methods of inhibition experiments carried out for various MMPs are described below.
This enzyme solution in amount of 1 μL was diluted to 90 μL with the assay buffer A, which was added to 90 μL of 20 μM fluorescent substrate (Dnp-Pro-Cha-Gly-Cys(Me)-His-Ala-Lys(Nma)-NH2) prepared in the assay buffer B, followed by reaction for 4 hours at 37° C.

The IC50 is the concentration that inhibits the measured activity by half. For `CC(=O)N1CCC(CC(CS(=O)(=O)c2ccc(OCc3cc(C)nc4ccccc34)cc2)N(O)C=O)CC1` (stereo not drawn) [Example I-69], the IC50 on Human MMP14 was over 100 µM; on Human MMP2, 9 µM; on Human MMP9 it was over 100 µM; at Human MMP1 it was over 100 µM; at Human MMP8, 9.8 µM; at Human MMP3 it was 0.63 µM. The IC50 was found to be 0.0053 µM at TACE, 0.45 µM on Human MMP17 and 13 µM on Human MMP13.
`CC(=C1CCOCC1)C(CS(=O)(=O)c1ccc(OCc2cc(C)nc3ccccc23)cc1)N(O)C=O` (stereo not drawn) [Example I-15]: the IC50 at Human MMP14 was 70 µM; on Human MMP2 it was 38 µM; at Human MMP9, over 100 µM; at Human MMP1, over 100 µM; at Human MMP8 it was 60 µM; on Human MMP3, 9 µM. The figures for the IC50 against TACE, at Human MMP17 and on Human MMP13 were 0.0055 µM, 3.5 µM and 30 µM, respectively.
For the molecule `Cc1cc(COc2ccc(S(=O)(=O)CC(C=C3CCN(Cc4ccccc4)CC3)N(O)C=O)cc2)c2ccccc2n1` (stereo not drawn) [Example I-45], the IC50 on Human MMP14 was 9 µM; on Human MMP2, 1 µM; at Human MMP9, 40 µM; on Human MMP1, 85 µM; at Human MMP8 it was 5 µM; on Human MMP3, 0.26 µM. Moreover, the values for the IC50 against TACE, on Human MMP17 and at Human MMP13 were 0.005 µM, 0.27 µM and 2 µM, respectively.
Take `Cc1cc(COc2ccc(S(=O)(=O)CC(C=C3CCN(C=O)CC3)N(O)C=O)cc2)c2ccccc2n1` (stereo not drawn) [Example I-43]: the IC50 at Human MMP14 is over 100 µM; on Human MMP2, 50 µM; at Human MMP9 it was over 100 µM; on Human MMP1, over 100 µM; on Human MMP8, 52 µM; at Human MMP3 it was 11 µM. In addition, the results for the IC50 at TACE, at Human MMP17 and on Human MMP13 were 0.0031 µM, 4.5 µM and 65 µM, respectively.
For the molecule `Cc1cncc(C(CS(=O)(=O)c2ccc(OCc3cc(C)nc4ccc(F)cc34)cc2)N(O)C=O)c1` (stereo not drawn) [Example I-80], the IC50 at Human MMP14 is over 100 µM; at Human MMP2, 18 µM; on Human MMP9, over 100 µM; on Human MMP1 it was over 100 µM; at Human MMP8 it was 27 µM; at Human MMP3, 4 µM. In addition, the IC50 came out at 0.0045 µM against TACE, 7 µM at Human MMP17 and 23 µM at Human MMP13.
Turning to `Cc1cc(COc2ccc(S(=O)(=O)CC(C=C3CCN(C(=O)OC(C)(C)C)CC3C)N(O)C=O)cc2)c2ccccc2n1` (stereo not drawn) [Example I-61], the IC50 at Human MMP14 was 54 µM; at Human MMP2, 5 µM; on Human MMP9 it was 62 µM; at Human MMP1, 80 µM; on Human MMP8, 24 µM; on Human MMP3, 1.5 µM. Besides, the IC50 against TACE amounted to 0.0033 µM; at Human MMP17 it was 1.8 µM; on Human MMP13 it was 10 µM.
Consider `Cc1cc(COc2ccc(S(=O)(=O)CC(c3ccccc3C)N(O)C=O)cc2)c2cc(F)ccc2n1` (stereo not drawn) [Example I-79, N-{2-[4-(6-fluoro-2-methylquinolin-4-ylmethoxy)benzenesulfonyl]-1-o-tolylethyl}-N-hydroxyformamide], for which the IC50 is 46 µM on Human MMP14; 58 µM on Human MMP2; 70 µM on Human MMP9; 68 µM at Human MMP1; 73 µM on Human MMP8; 2.9 µM at Human MMP3. Also, the IC50 turned out to be 0.015 µM against TACE, 6.2 µM on Human MMP17 and 20 µM at Human MMP13.
Take `CCC(CC)C(=O)N1CCC(=CC(CS(=O)(=O)c2ccc(OCc3cc(C)nc4ccccc34)cc2)N(O)C=O)C(C)C1` (stereo not drawn) [Example I-63]: the IC50 at Human MMP14 is 65 µM; at Human MMP2 it was 30 µM; on Human MMP9, 75 µM; at Human MMP1 it was 64 µM; on Human MMP8, 60 µM; on Human MMP3, 2.4 µM. For the same molecule, the IC50 at TACE was found to be 0.002 µM; on Human MMP17, 2.2 µM; on Human MMP13 it was 32 µM.
Regarding `CCC(CC)CN1CCC(=CC(CS(=O)(=O)c2ccc(OCc3cc(C)nc4ccccc34)cc2)N(O)C=O)CC1` (stereo not drawn) [Example I-44], the IC50 at Human MMP14 is 60 µM; at Human MMP2, 6.5 µM; on Human MMP9, over 100 µM; on Human MMP1, over 100 µM; at Human MMP8 it was 42 µM; on Human MMP3, 3 µM. Further, the figures for the IC50 at TACE, on Human MMP17 and on Human MMP13 were 0.0078 µM, 1.1 µM and 20 µM, respectively.
As for `COc1ccc(CCC(CS(=O)(=O)c2ccc(OCc3cc(C)nc4ccccc34)cc2)N(O)C=O)cc1` (stereo not drawn) [Example I-35], the concentration for half-maximal inhibition (IC50) on Human MMP14 came out at 38 µM; at Human MMP2 it was 4.2 µM; at Human MMP9, 37 µM; at Human MMP1, 50 µM; on Human MMP8, 35 µM; on Human MMP3, 10 µM. In addition, the IC50 against TACE stood at 0.032 µM; at Human MMP17 it was 6 µM; on Human MMP13, 7.8 µM.
On to `Cc1ccc2nc(C)cc(COc3ccc(S(=O)(=O)CC(C=C4CCC(=NO)CC4)N(O)C=O)cc3)c2c1` (stereo not drawn) [Example I-75], for which the IC50 turned out to be 40 µM at Human MMP14; 50 µM on Human MMP2; 35 µM on Human MMP9; 65 µM on Human MMP1; 90 µM on Human MMP8; 5.5 µM at Human MMP3. The IC50 against TACE came out at 0.0041 µM; at Human MMP17, 11 µM; on Human MMP13 it was 22 µM.
In the case of `Cc1cc(COc2ccc(S(=O)(=O)CC(C3CCOCC3)N(O)C=O)cc2)c2ccccc2n1` (stereo not drawn) [Example I-49], the IC50 at Human MMP14 is 90 µM; on Human MMP2, 24 µM; on Human MMP9, over 100 µM; at Human MMP1, over 100 µM; at Human MMP8, 9 µM; on Human MMP3, 2 µM. Moreover, the IC50 against TACE was 0.013 µM; on Human MMP17, 0.61 µM; on Human MMP13, 30 µM.
`CCC(CC)C(=O)N1CCC(CC(CS(=O)(=O)c2ccc(OCc3cc(C)nc4ccccc34)cc2)N(O)C=O)C(C)C1` (stereo not drawn) [Example I-64]: the IC50 at Human MMP14 is 65 µM; at Human MMP2 it was 9 µM; on Human MMP9, 58 µM; at Human MMP1 it was 57 µM; at Human MMP8 it was 17 µM; at Human MMP3, 0.7 µM. In addition, the results for the IC50 on TACE, at Human MMP17 and on Human MMP13 were 0.0051 µM, 0.58 µM and 17 µM, respectively.
For `Cc1cc(COc2ccc(S(=O)(=O)CC(C3CCCN(C(=O)c4ccccc4)C3)N(O)C=O)cc2)c2ccccc2n1` (stereo not drawn) [Example I-131], the IC50 on Human MMP14 came out at 22 µM; on Human MMP2 it was 4.4 µM; on Human MMP9, 50 µM; on Human MMP1 it was 47 µM; on Human MMP8, 4.1 µM; at Human MMP3, 0.2 µM. Moreover, the IC50 is 0.02 µM against TACE, 0.1 µM at Human MMP17 and 3.2 µM on Human MMP13.
